Results taken from article PMC4818757, “Small molecule inhibitors of the Dishevelled‐CXXC5 interaction are new drug candidates for bone anabolic osteoporosis therapy” (EMBO Molecular Medicine, 2016).
Entries after “also recorded” stand apart in the source; their conditions may differ. Like-named read-outs stand apart in the source and are kept apart here.

Columns and labels:
MC3T3E1 cells = experiment: qRT-PCR of osteoblast differentiation markers in MC3T3E1 cells; assay type: cell-based, murine; settings: dose‐dependent
Experimental: Figure 5 Effects of KY‐02327 on Wnt/β‐catenin pathway and osteoblast differentiation in osteoblasts • A MC3T3E1 cells were transfected with pTOPFLASH together with pCMV‐β‐gal. After 24 h, the cells were treated with indicated dose of KY‐02327 for 2 days. The luciferase activities of whole‐cell lysates were measured and normalized with β‐galactosidase activities. (n = 3) • B, C MC3T3E1 cells were treated with indicated concentrations of KY‐02327 for 2 days. β‐Catenin and α‐tubulin were detected by immunoblot (B) or immunofluorescence (C) analyses. Nuclei were counterstained with DAPI (C, blue). Scale bars, 100 μm. • D MC3T3E1 cells were treated with indicated concentrations of KY‐02327 for 14 days. The mRNA level of collagen 1a (Col1a) was measured by quantitative real‐time PCR (qRT–PCR). […] The mRNA level of osteocalcin (OCN) was measured by qRT–PCR. […] (error bars), and significance was assessed using unpaired Student's t‐test.
(§1) MC3T3E1 cells and primary calvaria cells were maintained in supplemented α‐MEM. […] For quantitative real‐time PCR (qRT–PCR), total mRNAs were extracted using TRIzol (Invitrogen), complementary DNAs were prepared using Maxime PCR PreMix (iNtRON Biotechnology, Sungnam, Korea), and the qRT–PCRs were performed using SYBR Premix Ex Taq (TaKaRa, Shiga, Japan) in the StepOnePlus Real‐Time PCR machine (Thermo Fisher Scientific, Waltham, MA). […]

TA-100 = system: TA-100
Source text: (§2) Appendix Table S3. Bacterial reverse mutation assay with KY-02327
(§3) a Number of revertant colonies of treated plate/Number of revertant colonies of
(§4) vehicle control plate (Maron & Ames, 1983).
(§5) b Negative control. Vehicle: DMSO

TA-98 = system: TA-98
Source text: as §2, §3, §4, §5

[1] = target: Human Ether-à-go-go Related Gene (hERG) potassium channel (Homo sapiens, UniProt Q12809); experiment: hERG binding assay (fluorescence polarization)
hERG potassium channel = hERG potassium channel (Homo sapiens, UniProt Q12809); experiment: hERG binding assay (fluorescence polarization); settings: human; 10 µM compound; fluorescence polarization
[2] = system: normal or cancer cells derived from various tissues; experiment: MTT assay on various normal or cancer cells; assay type: cell-based
Experimental: (amino acids 1-34) was subcutaneously injected into the Sham-operated
(Sham) or ovariectomized (OVX) mice on 5 sequential days per week for 4 weeks [n =4]. During treatment, the weights of each mouse were measured and recorded every week (A). After 4 weeks treatment, mice were scarified and their organs were subjected to histological analyses.
Hematoxylin and Eosin staining of liver (B), lung (C), and spleen (D).
E Various cells were treated with DMSO or 0.1, 1, or 10 µ M KY-02327.
After 48 hours, cells were subjected to an MTT assay (OD590 reading) to measure cell viability. NSC: neural stem cell, OB: osteoblast, MSC: mesenchymal stem cell. The data are the mean ± s.d. (error bars). [n =3]

primary osteoblast cells = experiment: ALP staining of primary calvaria (osteoblast) cells; assay type: cell-based, mouse; settings: 4 days
Experimental: Figure 3 Effect of KY‐02061 on Wnt/β‐catenin pathway, osteoblast differentiation, and ex vivo‐cultured calvaria growth • A MC3T3E1 cells were transfected with pTOPFLASH together with pCMV‐β‐gal. After 24 h, the cells were treated with DMSO, KY‐02061 in DMSO, or 5 μM PolyR‐DBM for 2 days. The luciferase activities of whole‐cell lysates were measured and normalized with β‐galactosidase activities. (n = 3) • B Primary calvaria cells were isolated from the calvariae of 4‐day‐old mice (Manton et al, 2007) and treated with DMSO or KY‐02061 in DMSO for 4 days. ALP activity levels were visualized by ALP staining. • C Primary calvaria cells were treated with DMSO or 5 μM KY‐02061 in DMSO for 14 days. […] The calvaria thicknesses were measured from the stained sections using Image Pro software (E). […] (error bars), and significance was assessed using unpaired Student's t‐test.
as §1

hERG potassium channel, sequence (Q12809 whole entry): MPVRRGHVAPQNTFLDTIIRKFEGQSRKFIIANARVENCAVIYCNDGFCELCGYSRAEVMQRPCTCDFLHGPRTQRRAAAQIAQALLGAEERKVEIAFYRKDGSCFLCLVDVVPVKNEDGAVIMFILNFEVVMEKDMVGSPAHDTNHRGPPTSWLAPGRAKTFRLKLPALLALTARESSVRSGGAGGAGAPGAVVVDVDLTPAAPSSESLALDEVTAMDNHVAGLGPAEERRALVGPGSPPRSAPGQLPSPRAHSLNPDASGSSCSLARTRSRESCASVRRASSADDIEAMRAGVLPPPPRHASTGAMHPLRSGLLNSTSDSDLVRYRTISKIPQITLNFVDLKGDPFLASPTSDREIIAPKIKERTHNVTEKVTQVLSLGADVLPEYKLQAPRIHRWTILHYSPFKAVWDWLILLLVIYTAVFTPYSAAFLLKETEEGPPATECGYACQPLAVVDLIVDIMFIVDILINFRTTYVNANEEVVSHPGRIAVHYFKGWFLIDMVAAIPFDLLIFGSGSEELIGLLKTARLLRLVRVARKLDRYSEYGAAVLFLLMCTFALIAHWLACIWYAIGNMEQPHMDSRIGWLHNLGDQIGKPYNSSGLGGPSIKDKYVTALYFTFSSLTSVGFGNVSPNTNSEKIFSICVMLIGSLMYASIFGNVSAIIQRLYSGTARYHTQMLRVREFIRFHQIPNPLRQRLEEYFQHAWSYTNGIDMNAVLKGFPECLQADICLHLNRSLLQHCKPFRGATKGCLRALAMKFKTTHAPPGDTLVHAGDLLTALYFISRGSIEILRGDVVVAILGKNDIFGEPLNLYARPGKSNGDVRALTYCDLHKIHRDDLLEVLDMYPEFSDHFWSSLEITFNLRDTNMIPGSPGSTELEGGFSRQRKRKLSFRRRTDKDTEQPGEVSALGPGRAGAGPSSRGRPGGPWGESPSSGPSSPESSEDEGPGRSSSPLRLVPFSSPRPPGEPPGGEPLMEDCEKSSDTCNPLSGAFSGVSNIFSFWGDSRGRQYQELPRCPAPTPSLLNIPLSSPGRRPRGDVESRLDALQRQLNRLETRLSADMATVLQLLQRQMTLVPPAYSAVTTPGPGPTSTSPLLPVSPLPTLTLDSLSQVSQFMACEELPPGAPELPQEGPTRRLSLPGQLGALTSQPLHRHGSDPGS
Human Ether-à-go-go Related Gene (hERG) potassium channel, sequence (Q12809 whole entry): as above

For CCOC(=O)c1cc2cc(O)ccc2n1CC(=O)NCCN1CCCCC1 [KY‐02327], the “mRNA level of collagen 1a (Col1a)” value (MC3T3E1 cells; 14 days) was “increased”, the “mRNA level of osteocalcin (OCN)” value (MC3T3E1 cells; 21 days) was “increased” and the “Factor (revertant colonies treated plate / vehicle control plate)” value (TA-100; TA-100, With S-9 mix) was 1.0. For the same compound, the “Revertant colonies/plate (Mean)” value (TA-100; TA-100, With S-9 mix, dose (g/plate): KY-02327 1000, B.P 2) was 117 ± 8 colonies/plate, the “Factor (revertant colonies treated plate / vehicle control plate)” value (TA-100; TA-100, Without S-9 mix) was 1.0 and the “Revertant colonies/plate (Mean)” value (TA-100; TA-100, Without S-9 mix, dose (g/plate): KY-02327 1000, S.A 1) was 123 ± 6 colonies/plate. For the same compound, the “Factor (revertant colonies treated plate / vehicle control plate)” value (TA-98; TA-98, Without S-9 mix) was 1.0, the “Revertant colonies/plate (Mean)” value (TA-98; TA-98, Without S-9 mix, dose (g/plate): KY-02327 1000, 2-NF 1) was 19 colonies/plate and the “genetic toxicity in bacterial reverse mutation assay” value (TA-98; TA-98 and TA-100) was “no genetic toxicity”. For the same compound, the “cardiotoxicity (hERG potassium channel inhibition test)” value [1] was “did not show any significant cardiotoxicity”, the inhibition at 10 µM (hERG potassium channel) was 10.9 ± 2.07% and the “toxic effect on cell viability (MTT)” value ([2]; 0.1, 1, or 10 M, 48 hours) was “no significant toxic effect”. The “proliferation of MC3T3E1 cells (MTT)” value ([2]; MC3T3E1) was “did not significantly affect” and the “proliferation of murine primary osteoblasts (OB)” value ([2]; OB) was “unaffected”.

For CCOC(=O)Cn1c(C(=O)OCC)cc2cc(OS(=O)(=O)c3ccc(C)cc3)ccc21 [KY‐02061], the “Alkaline phosphatase (ALP) activity” value (primary osteoblast cells; 2 μM) was “increased; also recorded: strongest increase” and the “ALP activity, dose dependence” value (primary osteoblast cells) was “increased in a dose‐dependent manner”.
